Experimental data taken from a melting point compilation (Tetko et al.; mined from patent text by program, amines drawn as free bases though some values may be those of a salt).

melting point [°C] | SMILES
149 to 150 | COc1ccc(Cn2nc(CN3CCN(c4ccccc4OC)CC3)c3cc(OC)c(OC)cc32)cc1OC
206 | CN1CCOc2ccc(S(=O)(=O)n3c(Cc4ccc(C(=O)O)cc4)cc4cc(C(F)(F)F)ccc43)cc21
163 to 164 | CC(C)n1nc(-c2c(Nc3ccccn3)nc(N)nc2-c2ccccc2)ccc1=O
151 | CCOc1ccc2c(c1)n(C1CCCC1)c(=O)n2S(=O)(=O)c1ccc(C(=O)OC)cc1OC
146 to 148 | Nc1ccnc(Cl)c1Cl
165 to 166 | CCc1ccc(C2C(C#N)=C(CC(C)C)NC(C)=C2C(=O)OC(C)(C)C)cc1 (centres undefined)
155 to 160 | Cc1c(NN)nc(N)nc1-c1ccco1
219 to 226 | O=c1cnc(-c2c(F)cccc2F)n[nH]1
> 260 | N#Cc1c[nH]c2cc3ccccc3cc2c1=O
81 to 84 | CCC(COc1cccc(COc2cccc3ccc(=O)[nH]c23)c1)OC(C)=O (centres undefined)
132 to 133 | N=C(Nc1ccc(Cl)cc1)Nc1ncc(Cl)cc1OCc1c(F)cccc1Cl
199 to 200 | CCOP(=O)(Cc1ccc(NC(=O)/C=C/c2cn(Cc3ccccc3)nc2-c2ccc(F)cc2)cc1)OCC
111 to 112 | CCc1cnn(CC(=O)O)c1OCCCc1cn(-c2ccc(C(F)(F)F)cn2)nc1C(C)C
134 to 135 | CCOC(=O)CNC(=O)Oc1c(C)n(CCOC)ccc1=O
157 to 163 | NS(=O)(=O)c1ccccc1-c1cnco1
232 to 235 | O=C(O)c1cn(C2CC2F)c2c(F)c(F)c(F)cc2c1=O (centres undefined)
165 to 168 | CC(CNc1ccc(C(=O)O)cc1)Oc1ccc(Cl)c2ccccc12 (centres undefined)
181 to 182 | CC(C)c1ccc2c(c1)c(S(=O)(=O)c1ccccc1C(C)C)c(CC(C)(C)C(=O)O)n2Cc1ccc(Cl)cc1
156 to 158 | C=CCOCc1csc2c(=O)c(C(=O)NCc3ccc(Cl)cc3)cn(C)c12
149 to 150 | COc1cc(OC)nc(NC(=O)NS(=O)(=O)c2ccccc2CO)n1
130 | COc1c([N+](=O)[O-])cc(C=O)c(Cl)c1O
160 to 162 | COc1ccc2c(c1)CN(C(=O)N(C)C)N=C2Cc1c(Cl)cncc1Cl
149 to 150 | COc1cc(-c2csc(C)n2)cc2oc(=O)c(C)c(C)c12
257 to 258 | O=C1NC(=O)c2ccccc2/C1=C/Nc1ccc(N2CCOCC2)cc1
112 to 113 | Cc1nc(-c2ccc(OCC(C)C)c([N+](=O)[O-])c2)sc1C(=O)OCC(C)C
143 to 144 | CCC(C)(C)c1ccc(Oc2cccc(C#N)c2C#N)c(C(C)(C)CC)c1

melting point [°C] | SMILES
104 | CC(C)(C)OC(=O)Nc1ccc(-c2cc(F)ccc2F)cc1[N+](=O)[O-]
114 to 115 | CC(C)Oc1cc(CCC(=O)O)n(Cc2ccc(Cl)cc2Cl)n1
63 to 70 | COC(=O)c1ccc(OCCNC(=O)C2Cc3ccccc3N2S(=O)(=O)c2ccc(-c3cccc(C(F)(F)F)c3)cc2)cc1F (centres undefined)
207 to 209 | O=C(Cc1ccc(Cl)cc1)Nc1cc(CC2SC(=O)NC2=O)ccc1O (centres undefined)
298 to 300 | CCOC(=O)C1n2c3ccccc3c3c4c(c5c6ccccc6n(c5c32)CS1(=O)=O)C(=O)NC4=O (centres undefined)
111 to 113 | CCOCCOc1c(C)cc(Oc2ccc3c(c2)C=C(C(=O)Nc2ccc(CN(C)C4CCOCC4)cc2)CCS3(=O)=O)cc1C
105 to 106 | CCOC(=O)CCc1ccc(OCc2ccc(OCc3nc(-c4ccccc4)oc3C)cc2)cc1
135 to 137 | Cc1noc(C)c1Cn1cc(NC(=O)c2ccccn2)cn1
> 300 | CC1SC(=O)NN=C1c1ccc2c(c1)C(=NNC(=O)c1cccs1)C(=O)N2 (centres undefined)
220 to 222 | CC(=O)N(C(=O)OC(C)(C)C)c1ccc(-c2nc3n(Cc4c(F)cccc4F)cc(-c4ccccc4)c(=O)n3c2C)cc1
235 to 237 | COc1ccc(O)c2c1C(=O)N(Cc1ccccc1)S2=O (centres undefined)
223 to 225 | COc1cc2ncnc(N3CCc4c(Br)ccc(C)c43)c2cc1OC
97 to 98 | CCOC(=O)CCc1cn(-c2ccccc2)nc1OCc1ccc(OCc2nc(-c3ccco3)oc2C)c(OC)c1
179 to 182 | CC(=O)OC1=CC=C2CC3N4CCC25C1OC1C(=O)CCC3(OC4)C15 (centres undefined)
148 to 150 | CCn1c(-c2ccc(C(F)(F)F)cc2C(F)(F)F)nc(-c2ccncc2)c1-c1ccc(Cl)cc1
123 to 126 | COCC1CC(Cn2ccnc2)(c2ccc(Cl)cc2)N(C)O1 (centres undefined)
113 to 115 | Cc1cc(C)cc(Sc2c(C(C)C)c(=O)[nH]c(=O)n2CC#Cc2ccccc2)c1
230 to 232 | COC(=O)c1cc(NC(=O)c2ccccc2Cl)c2cc(Cc3ccc(F)cc3)cnc2c1O
165 to 166 | CC(=O)c1ccc(S(=O)(=O)Nc2ccon2)cc1
> 300 | Cc1[nH]c(=O)c2c(N)c([N+](=O)[O-])ccc2c1C
177 to 178 | COC1CCN(c2ccn3nc(-c4ccccc4)c(-c4ccc(=O)n(C(C)C)n4)c3c2)CC1
128 to 130 | CCc1cccc2c3c([nH]c12)C(CC)(CC(=O)OC)OCC3 (centres undefined)
83 to 86 | Cn1c(C(F)(F)F)c(Cl)c(=O)n(-c2ccc(Cl)c3nc(C(C)(C)C)oc23)c1=O
36 | CCC(C)(C)NC(=O)C(=O)C(C)(C)C
118 to 119 | CCc1cccc2c3c([nH]c12)C(CC)(CCF)OCC3 (centres undefined)
136 to 138 | CC#Cc1ccc(NC(=O)c2cccnc2Cl)cc1

The next lines start with the compound.

SMILES | melting point [°C]
O=C(NC(Cc1c[nH]c2ccccc12)C(=O)C(=O)CCl)OC1C2CC3CC(C2)CC1C3 (centres undefined) | 56 to 63
CCCOC(=O)c1cn(C(C)(C)C)c2ncc([N+](=O)[O-])cc12 | 116 to 120
Cc1cc(O)c(C)c(O)c1C#N | 162 to 163
CNC(=O)N1N=C(c2ccc(N)cc2)c2cc(Cl)ccc2CC1C (centres undefined) | 115 to 118
CCOC(=O)c1sc(Oc2ccccc2)c2c1CCCC2=O | 125 to 127
CON(C)C(=O)NC(CSC(C)=O)Cc1ccccc1 (centres undefined) | 68 to 70
CC(C)c1ccc(S(=O)(=O)c2ccccc2)cc1S(=O)(=O)NC1CCN(C(=O)c2ccccc2F)CC1 | 210 to 212
NS(=O)(=O)c1ccc(S(=O)(=O)NCc2cccs2)s1 | 146 to 148
CCOC(=O)C(C(=O)OCC)=C1CSC2=C1SCCNC2 | 87 to 89
Nc1nc(N)c(Br)c(OCCOCP(=O)(O)O)n1 | 218
O=C(Cl)Oc1c(CCl)cccc1CCl | 71.5 to 73.5
c1ccc(N(c2ccc3c(c2)Oc2ccc(N(c4ccccc4)c4cccc5ccccc45)cc2O3)c2cccc3ccccc23)cc1 | 315
Cc1ccccc1C(CCC(=O)O)Oc1cc(OCc2cccnc2)ccc1C(=O)c1ccccc1 (centres undefined) | 185 to 186
Cc1sc2c(c1C)C(C1CCCCC1)=NCC(=O)N2 | 205
CON(C(=N)N)c1nc(C)cc(C)n1 | 134 to 136
CCCCc1ccc(NCC)c(C(=O)C(=O)OC(=O)C(=O)c2cc(CCCC)ccc2NCC)c1 | 130 to 132
O=C(O)[C@H]1CCn2c(cc3ccccc32)C1 | 244 to 246
O=C(O)CCc1c(-c2ccccc2)noc1O | 183 to 184
CCCCCCCCCCCCCC(=O)O[C@H](CCCCCCCCCCC)CC(=O)N[C@@H](CO)C(=O)OCc1ccccc1 | 56 to 61
Cc1cc(-c2ccccc2)c2c(n1)C(C(N)=S)CCC2 (centres undefined) | 174 to 175
CN1CC(OC(=O)C(c2ccccc2)c2ccccc2)CNC1=N[N+](=O)[O-] (centres undefined) | 187
CC(C)(C)c1ccc(SC(CCl)S(=O)(=O)c2ccccc2)cc1 (centres undefined) | 67 to 69
OC(Cc1ccc(F)cc1)(Cn1cncn1)C1(Cl)CC1 (centres undefined) | 111
ON=C1c2ccccc2C2CC2c2ccccc21 (centres undefined) | 201

SMILES | melting point [°C]
CCCCCCCCCOc1cc(C(N)=O)ccn1 | 108 to 110
C=CCOC(=O)c1c(C)nc2c(cnn2CCC(C)CC)c1N (centres undefined) | 85 to 86
O=C(CC(=S)N1CCC[C@H]1C(=O)O)c1ccccc1 | 151 to 152
Nc1c(Cl)cc(C(=O)NC2CCNCC2)c2c1CCO2 | 190
O=S1(=O)N(CCCN2CC=C(c3ccccc3)CC2)c2cccc3cccc(c23)N1CCCN1CC=C(c2ccccc2)CC1 | 140
C#Cc1ccc2c(c1)C(c1ccccn1)=NCc1c(C(=O)N(C)C)ncn1-2 | 193 to 194
NCCNC(=O)c1nc(Cl)c(N)nc1N | 173 to 174
CCCCCCS(=O)(=O)c1nnnn1CC(=O)OCC | 40 to 42
O=C(O)CCc1ccc2c(c1)OC[C@@H](Cc1ccccc1)[C@@H]2O (relative stereo) | 161 to 162
COC(=O)/C(=C/C=C/c1cc2ccccc2o1)OC | 108
N#Cc1nc(N)c(Cl)nc1C#N | 205 to 208
OCc1ccc(-c2cncc(OC3SCC(O)C(O)C3O)c2)cc1 (centres undefined) | 153
c1cc(-c2cnc(-c3cccc(-c4cnco4)n3)o2)cc(-c2cnc(-c3cccc(-c4cnco4)n3)o2)c1 | > 250
COC(=O)C(OC)C(=S)Nc1cc(Cl)cc(Cl)c1 (centres undefined) | 144 to 147
CCOC(=O)C(=O)Nc1c([N+](=O)[O-])cc(Br)c2ccccc12 | 190 to 191
N#CCNC(=O)C(Cl)c1ccccc1 (centres undefined) | 73 to 74
CNC(=O)NC1CCC(=O)c2ccccc21 (centres undefined) | 220 to 223
O=C(Nc1ccc(O)cc1)OCc1ccccc1 | 153 to 154
O=C1C=C(Nc2cccc(F)c2)CCN1 | 188 to 190
CC(=NN)c1ccc2c(c1)C(C(Cl)(Cl)Cl)OC(C(Cl)(Cl)Cl)O2 (centres undefined) | 159
Oc1ccc(-c2nnc(CSCCOc3ccccc3)o2)cc1 | 172 to 175
OCc1ccc(O)c(CO)c1CNCCCCCCOCC1CCCCC1 | 72 to 74
CC1(C2CCC3C4C=CC5=CC(=O)C6OC6C5(C)C4CCC32C)OCCO1 (centres undefined) | 137 to 138
